Measurements as given in PMC11477965, “Synthesis and Anti-Liver Fibrosis Research of Aspartic Acid Derivatives” (Molecules, 2024).
“Also recorded” adds a separate entry of the source. Where two headings read alike, the source gives them in different places.

Assays:
Assay type in all cases: cell-based, human
[1] = test system: IKKβ-NF-κB signaling pathway; assay: LPS-induced inflammation in LX-2 cells (western blot); settings: 24 h
Procedure: Inflammation is crucial in the onset and progression of liver fibrosis, and fibrosis can further exacerbate tissue inflammation. […] To assess the anti-inflammatory effects of Compounds 41 and 8a, LX-2 cells were pre-incubated in serum-free medium for 24 h before LPS stimulation, followed by treatment with different concentrations of the compounds in serum-free medium containing 1 μg/mL LPS for another 24 h. Changes in inflammatory cytokine protein levels were analyzed using western blotting.
The IKKβ-NF-κB signaling pathway has been closely linked to the severity of liver fibrosis, with IKKβ serving as the primary catalytic subunit responsible for NF-κB activation. Therefore, this study investigated the NF-κB pathway by measuring IKKβ kinase activity. […] To evaluate the effects of the target compounds on LPS-induced inflammatory cytokines, four concentrations (50, 100, 200 and 500 μmol/L) were tested, and the results were analyzed by grayscale scanning of western blot bands using ImageJ software (version 1.53t), with normalization to GAPDH protein levels.
(§1) After the confluence of LX-2 cells reached 90%, the cells were treated with serum-free medium for 24 h. 2 ng/mL TGFβ1 or 1 μg/mL LPS were used in combination with compounds of different concentrations for 24 h. The samples of cells were lysed in RIPA buffer supplemented with protease inhibitor cocktail (Roche) and separated by SDS-PAGE. After the proteins were transferred to the PVDF membrane, 5% skim milk in TBS-T buffer was used to block them at room temperature for 2 h. Specific primary and secondary antibodies were used to detect the target protein. Finally, the blot was visualized using the Tanon 5200 system (Tanon, Shanghai, China) and the protein expression of GAPDH was used as the internal reference.

[2] = test system: LX-2 cells; assay: SRB cytotoxicity assay in LX-2 cells; settings: CC50 in LX-2 cells / IC50 on COL1A1 promoter
Procedure: (§2) Their cytotoxicity in LX-2 cells was assessed across various concentrations using the SRB assay, and the cytotoxic concentrations (CC50) were determined. The selectivity index (SI), calculated as the ratio of CC50 to the […] (IC50), was employed to evaluate the compounds’ effects on the COL1A1 promoter (Table 2).
(§3) The LX-2 cells were seeded in a 96-well plate when reaching 90% confluent. After 24 h, the compound to be tested was prepared using a complete medium and added to the 96-well plate for 24 h. After washing with PBS, the cells were fixed with 10% (wt/vol) trichloroacetic acid for 1 h, washed with deionized water and dried completely and, after staining with SRB for 20 min, the excess dye was washed with 1% acetic acid (vol/vol) three times. The dye bound to the protein was dissolved with 10 mM Tris base solution and OD values were determined at […].

[3] = SRB cytotoxicity assay in LX-2 cells; settings: human, LX-2 cells, SRB assay, 24 h; read-out: CC50, cytotoxic concentration required to inhibit the growth of LX-2 cells by 50%
Procedure: as §2, §3

[4] = test system: fibro-genic gene expression (fibronectin, COL1A1, TGFβ, α-SMA, CTGF, and TIMP1); assay: Western blot of fibro-genic proteins in TGFβ1-activated LX-2 cells; settings: TGFβ1 2 ng/mL, 24 h
Procedure: (§4) To evaluate the anti-fibrotic efficacy in vitro, we assessed the downregulatory effects of ten active compounds (3, 4c, 4d, 8a, 9, 28a, 32a, 41, 43 and 45) and L-Asp on fibro-genic gene expression (fibronectin, COL1A1, TGFβ, α-SMA, CTGF, and TIMP1) using western blot analysis. LX-2 cells were activated with TGFβ1 (2 ng/mL) and concurrently treated with each compound (100 μmol/L) for 24 h.
as §1

[5] = test system: LX-2 cells; assay: LPS-induced activation of LX-2 cells, fibro-genic proteins (western blot); settings: LPS 1 μg/mL, 50, 100, 200, and 500 μmol/L, 24 h
Procedure: Taking the results of Figure 3 and Figure 4 together, it seems that compounds 41 and 8a alleviate inflammation and inhibit liver fibrosis through the IKKβ-NF-κB signaling pathway, as indicated in Figure 5.
as §1

[6] = test system: COL1A1 promoter; assay: COL1A1 promoter luciferase reporter inhibition assay in LX-2 cells; settings: for IC50: read-out: IC50 to inhibit the activity of COL1A1 promoter by 50%;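 as to all read-outs here: Anti-fibrotic screen: luciferase reporter driven by the COL1A1 promoter in human hepatic stellate LX-2 cells, compounds applied in complete medium in 96-well plates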
Procedure: A total of 32 target compounds, the lead compound L-Asp, and the positive control epigallocatechin gallate (EGCG), known for its anti-hepatic fibrotic activity [29], were tested for inhibitory effects on COL1A1 promoter activity at a concentration of 0.5 mM.
The LX-2 cells at 90% confluent were transfected with the plasmid of pGL4.17-COL1A1 promoter using Lipofectamine 2000 (Invitrogen, 11668019, Carlsbad, CA, USA) with Opti-MEM serum-free medium (Gibco, 1930104). After culturing for 6 h, the cells were replaced with a complete medium and seeded in 96-well plates for 24 h. The compound to be tested was prepared using a complete medium and added to the 96-well plate. After 24 h, Bright-Glo Luciferase Assay System (Promega, Madison, WI, USA) was used to detect the activity of COL1A1 promoter and the assaying inhibition rate.

[7] = test system: mRNA expression of COL1A1, TGFβ1, and MMP2; assay: RT-qPCR of fibro-genic mRNA in TGFβ1-activated LX-2 cells; settings: TGFβ1 2 ng/mL, 24 h
Procedure: as §4
The LX-2 cells were seeded in a 6-well plate and cultured in a complete medium at 37 °C in a 5% CO2 environment until reaching 90% confluence. After culture without serum medium for 24 h, the cells were treated with 2 ng/mL TGFβ1 or 1 μg/mL LPS and the right concentration of compounds for 24 h. Total RNA was extracted using TRIzol reagent and purified by NucleoSpin RNA Clean-up Kit (Macherey-Nagel, Munich, Germany). Total RNA was reverse-transcribed into […] using a Transcriptor First Strand cDNA Synthesis Kit (Roche, Basel, Switzerland). The relative expression levels of the target gene were determined using a TaqMan probe with an ABI Q3 quantitative real-time PCR system, while GAPDH was utilized as an internal control for mRNA expression. The fold change of target mRNA expression was calculated using Equation 2^−∆∆Ct.

COC(=O)[C@H]1C[C@H](Oc2cc(Cl)nn3c(-c4ccc(OC)c(OC)c4)cnc23)CN1C(=O)OC(C)(C)C [Compound 41, 1-(tert-butyl)-2-methyl-(2R,4S)-4-((6-chloro-3-(3,4-dimethoxyphenyl)imidazo [1,2-b]pyridazin-8-yl)oxy)pyrrolidine-1,2-dicarboxylate]
LPS-induced phosphorylation and baseline expression of IKKβ, NF-κB phosphorylation and expression ([1]; LPS 1 μg/mL, 50, 100, 200, and 500 μmol/L): dose-dependent reduction
IL-6 expression ([1]; LPS 1 μg/mL): significantly suppressed
inhibition of inflammatory factors ([1]; LPS 1 μg/mL, 500 μM bands scanned): superior inhibitory effects
SI, selectivity index (CC50/IC50) [2]: 16.68
CC50 at 24 h [3]: 510 ± 51.5 µM
expression of fibro-genic genes (western blot) ([4]; compound 100 μmol/L): significantly suppressed
protein levels of fibronectin, COL1A1, and α-SMA following TGFβ1 stimulation ([4]; different concentrations): notably inhibited; also recorded: reduced the protein levels of fibronectin, COL1A1, and α-SMA in a dose-dependent manner
protein expression of COL1A1, fibronectin, α-SMA, and CTGF [5]: significantly reducing; also recorded: potent inhibition
IC50 ([6]; Homo sapiens, LX-2, LX-2 cells): 30 µM
inhibition at 500 µM ([6]; Homo sapiens, LX-2 cells, 0.5 mM, 24 h, read-out: Inhibitory Rate (%) of COL1A1 promotor): 66.7 ± 1.96%
relative fluorescence unit (RFU) of COL1A1 promotor ([6]; LX-2 cells, mean ± SD, n = 3, Control 124874.7 ± 10750.9): 41555.6 ± 2445.9 RFU
IC50 ([6]; LX-2 cells): 30.6 ± 0.3 µM
mRNA expression of COL1A1, TGFβ1, and MMP2 [7]: markedly decreased
